Measured values: patent US12685746B2, “Cyclodextrin derivatives in the treatment or prevention of lysosomal neurodegenerative diseases” (CYCLOLAB CYCLODEXTRIN RESEARCH AND DEVELOPMENT LABORATORY …, priority 2020, dated 2026)
Entries after “also recorded” stand apart in the source; their conditions may differ.

How the values were obtained:
[1] = tested on: zebrafish model for Niemann Pick type C1 (U18666A administration); test: Filipin staining of five day old zebrafish larvae pretreated with U18666A (cholesterol accumulation in the brain); type: in vivo, Danio rerio; conditions: for Reduction in U18666A induced cholesterol accumulation in the brain: result in words; for Heavy staining (number of larvae) / Light staining (number of larvae) / No staining (number of larvae): U18666A pretreated 5 dpf larvae; for No staining (number of larvae): fluorescence in head region; for Different from placebo: X2-test vs U18666A-placebo
Experimental: Several cyclodextrin derivatives were evaluated in a zebrafish model for Niemann Pick type C1 (U18666A administration). Cholesterol accumulation in the brain was quantified by filipin staining of Danio rerio Casper (albino strain) larvae. Results were compared with the reference compound Hydroxypropyl-β-cyclodextrin (HPBCD).
In this study the best performing Cyclodextrins were as follows: Heptakis(2,6-di-O-methyl)-beta cyclodextrin, Octakis(2,3,6-tri-O-methyl)-gamma cyclodextrin, Sualfadex sodium, Subetadex sodium Sugammadex sodium. Filipin staining of five day old zebrafish larvae (Danio rerio, Casper strain) pretreated with U18666A were studied.
Fertilized eggs were hatched and kept in an incubator at 28° C.
CDs were administered from Stock solutions (0.1%) in standard E3 medium. Preparation of E3 medium was as follows:
The stock solutions were diluted with E3. Compounds were administered in the swimming water. Each concentration was tested in 25 larvae.
Experimental compounds were tested at a 0.05% concentration. As reference Hydroxypropyl-β-cyclodextrin (Sigma) was tested at a 0.5% concentration.
Treated 5 dpf Casper larvae were fixed for 30 minutes in 4% paraformaldehyde. After washing (2 times) with PBS, they were stained for 30 minutes with 50 μg/mL filipin (Sigma) in PBS solution. Then larvae were washed (with PBS) twice.
Whole larvae were embedded and images were captured on a Dino-Lite Digital USB microscope for GFP/FITC recordings (AM4115T4). Images were evaluated by an independent assessor, unaware of the treatments. The assessor scored the fluorescence in the head region as none, light or heavy.
Data were analysed by means of X2-tests. All conditions were compared to the U18666A—placebo treatment group.
Fluorescence was measured as an index for the amount of filipin staining. The higher the filipin staining the more cholesterol accumulation there is in the brain. Individual larvae were scored (by a blinded assessor) as either heavy coloured, light coloured or not coloured at all.

[2] = tested on: 5 dpf Danio rerio larvae treated with U18666A; test: Mobility testing of U18666A-treated zebrafish larvae (DanioVision, distance moved); type: in vivo; conditions: U18666A 1 microg/ml 16 hours, then CD 24 hours (0.5-5%); result in words, values only in FIG. 1
Experimental: Danio rerio larvae (strain AB, Casper) 5 days post fertilization (dpf) at day of testing were treated with U18666A dissolved in standard E3 medium. Reversal of U18666A (1 microg/ml) effects on overall activity of 5 dpf Danio rerio larvae by different CDs at different concentrations (0.5-5%) were tested. Larvae were pretreated with U18666A for 16 hours and thereafter treated with CD for 24 hours. Statistical analyses were performed for the individual experiments with two way ANOVA's followed by Tukey post hoc tests (** p<0.01). CDs were dissolved in standard E3 medium.
DanioVision Observation Chamber which is a complete system, designed for the high-throughput testing of zebrafish larvae in 48-wells plates. It includes an observation chamber and renowned EthoVision XT video tracking software to quantify distance moved by the animals. The results are graphically represented (distance moved—in arbritrary unit) in FIG. 1.

[3] = Phase solubility study: interaction of cyclodextrins with unesterified cholesterol; type: physicochemical; conditions: 24 hours equilibration at 25±3° C.
Experimental: Phase solubility studies were performed in 5 ml solutions at room temperature, wherein cyclodextrin solutions of discrete concentrations were weighed and excess amount of cholesterol was added. After 24 hours equilibration time at 25±3° C. (using magnetic stirrer at 500 RPM), the dissolved equilibrium cholesterol concentrations were determined by HPLC after filtration through a syringe filter having polyethylene sulfone membrane of 0.45 micron nominal pore size. The experimentally determined cholesterol concentrations in the presence of different concentrations of HPBCD, Sualfadex sodium, Subetadex sodium and Sugammadex sodium are listed in Table 3.

[4] = literature studies; cited from earlier work
[5] = dose tested 0.05% in swimming water
[6] = dose tested 0.5% in swimming water

Row | Molecule | Reduction in U18666A induced cholesterol accumulation in the brain ([1]; 0.05%) | Heavy staining (number of larvae) [1, 5] | Light staining (number of larvae) [1, 5] | No staining (number of larvae) [1, 5] | Motoric activity of the test animals [2] | Dissolved cholesterol concentration ([3]; CD concentration 5 w/w %) | Dissolved cholesterol concentration ([3]; CD concentration 10 w/w %) | Dissolved cholesterol concentration ([3]; CD concentration 15 w/w %) | Reduction in U18666A induced cholesterol accumulation in the brain ([1]; 0.05%, sodium salt) | Different from placebo ([1]; dose tested 0.05%) | Ototoxicity [4] | Reduction in U18666A induced cholesterol accumulation in the brain ([1]; 0.5%) | Heavy staining (number of larvae) [1, 6] | Light staining (number of larvae) [1, 6] | No staining (number of larvae) [1, 6] | Different from placebo ([1]; dose tested 0.5%)
1 | COC[C@H]1O[C@H]2O[C@H]3[C@H](OC)[C@@H](OC)[C@H](O[C@H]4[C@H](OC)[C@@H](OC)[C@H](O[C@H]5[C@H](OC)[C@@H](OC)[C@H](O[C@H]6[C@H](OC)[C@@H](OC)[C@H](O[C@H]7[C@H](OC)[C@@H](OC)[C@H](O[C@H]8[C@H](OC)[C@@H](OC)[C@H](O[C@H]9[C@H](OC)[C@@H](OC)[C@H](O[C@H]1[C@H](OC)[C@H]2OC)O[C@@H]9COC)O[C@@H]8COC)O[C@@H]7COC)O[C@@H]6COC)O[C@@H]5COC)O[C@@H]4COC)O[C@@H]3COC [Octakis(2,3,6-tri-O-methyl)-gamma cyclodextrin] | only a small, non-significant, reduction | 13 | 11 | 0 | – | – | – | – | – | – | – | – | – | – | – | –
2 | COC[C@H]1O[C@@H]2O[C@H]3[C@H](O)[C@@H](OC)[C@@H](O[C@H]4[C@H](O)[C@@H](OC)[C@@H](O[C@H]5[C@H](O)[C@@H](OC)[C@@H](O[C@H]6[C@H](O)[C@@H](OC)[C@@H](O[C@H]7[C@H](O)[C@@H](OC)[C@@H](O[C@H]8[C@H](O)[C@@H](OC)[C@@H](O[C@H]1[C@H](O)[C@H]2OC)O[C@@H]8COC)O[C@@H]7COC)O[C@@H]6COC)O[C@@H]5COC)O[C@@H]4COC)O[C@@H]3COC [Heptakis(2,6-di-O-methyl)-beta cyclodextrin] | only a small, non-significant, reduction | 13 | 9 | 1 | – | – | – | – | – | – | – | – | – | – | – | –
3 | 6A,6B,6C,6D,6E,7F,6G-Heptakis-S-(2-carboxyethyl)-6A,6B,6C,6D,6E,6F,6G-heptathio-beta-cyclodextrin sodium salt [Subetadex sodium] | – | 5 | 15 | 4 | improved motoric activity | 0.062 mg/mL | 0.092 mg/mL | 0.246 mg/mL | significant cholesterol-accumulation hindering activity; also recorded: very strong reduction | *** (*** p<0.001) | – | – | – | – | – | –
4 | CC(O)COC[C@H]1O[C@@H]2O[C@H]3[C@H](O)[C@@H](O)[C@@H](O[C@H]4[C@H](O)[C@@H](O)[C@@H](O[C@H]5[C@H](O)[C@@H](O)[C@@H](O[C@H]6[C@H](O)[C@@H](O)[C@@H](O[C@H]7[C@H](O)[C@@H](O)[C@@H](O[C@H]8[C@H](O)[C@@H](O)[C@@H](O[C@H]1[C@H](O)[C@H]2O)O[C@@H]8COCC(C)O)O[C@@H]7COCC(C)O)O[C@@H]6COCC(C)O)O[C@@H]5COCC(C)O)O[C@@H]4COCC(C)O)O[C@@H]3COCC(C)O (stereo partly drawn) [HPBCD, Hydroxypropyl-β-cyclodextrin] | – | – | – | – | – | 0.28 mg/mL | 0.98 mg/mL | 2.06 mg/mL | – | – | ototoxic | significantly reduced | 9 | 13 | 2 | * (* p<0.05)
5 | O=C([O-])CCSC[C@H]1O[C@@H]2O[C@H]3[C@H](O)[C@@H](O)[C@@H](O[C@H]4[C@H](O)[C@@H](O)[C@@H](O[C@H]5[C@H](O)[C@@H](O)[C@@H](O[C@H]6[C@H](O)[C@@H](O)[C@@H](O[C@H]7[C@H](O)[C@@H](O)[C@@H](O[C@H]1[C@H](O)[C@H]2O)O[C@@H]7CSCCC(=O)[O-])O[C@@H]6CSCCC(=O)[O-])O[C@@H]5CSCCC(=O)[O-])O[C@@H]4CSCCC(=O)[O-])O[C@@H]3CSCCC(=O)[O-].[Na+].[Na+].[Na+].[Na+].[Na+].[Na+] [Sualfadex sodium, 6A,6B,6C,6D,6E,7F-Hexakis-S-(2-carboxyethyl)-6A,6B,6C,6D,6E,6F-hexathio-alpha-cyclodextrin sodium] | significant cholesterol-accumulation hindering activity; also recorded: very strong reduction | 4 | 16 | 4 | improved motoric activity | 0.016 mg/mL | 0.028 mg/mL | 0.051 mg/mL | – | *** (*** p<0.001) | – | – | – | – | – | –
6 | O=C([O-])CCSC[C@H]1O[C@@H]2O[C@H]3[C@H](O)[C@@H](O)[C@@H](O[C@H]4[C@H](O)[C@@H](O)[C@@H](O[C@H]5[C@H](O)[C@@H](O)[C@@H](O[C@H]6[C@H](O)[C@@H](O)[C@@H](O[C@H]7[C@H](O)[C@@H](O)[C@@H](O[C@H]8[C@H](O)[C@@H](O)[C@@H](O[C@H]9[C@H](O)C(O)[C@@H](O[C@H]1[C@H](O)[C@H]2O)O[C@@H]9CSCCC(=O)[O-])O[C@@H]8CSCCC(=O)[O-])O[C@@H]7CSCCC(=O)[O-])O[C@@H]6CSCCC(=O)[O-])O[C@@H]5CSCCC(=O)[O-])O[C@@H]4CSCCC(=O)[O-])O[C@@H]3CSCCC(=O)[O-].[Na+].[Na+].[Na+].[Na+].[Na+].[Na+].[Na+].[Na+] (stereo partly drawn) [Sugammadex sodium, 6A,6B,6C,6D,6E,7F,6G,6H-Octakis-S-(2-carboxyethyl)-6A,6B,6C,6D,6E,6F,6G,6H-octathio-gamma-cyclodextrin sodium salt] | – | 4 | 15 | 5 | improved motoric activity | 0.056 mg/mL | 0.062 mg/mL | 0.150 mg/mL | significant cholesterol-accumulation hindering activity; also recorded: very strong reduction | *** (*** p<0.001) | – | – | – | – | – | –
